Results as given in patent publication US20120142609A1, “NON HUMAN ANIMAL MODELS FOR INCREASED RETINAL VASCULAR PERMEABILITY” (priority 2009, published 2012).

Tested on: Müller glial cells
Experiment: Osmotic Müller cell swelling in acutely isolated retinal slices under hypotonic challenge
Assay type: cell-based, mouse
Settings: for effect on osmotic swelling of Müller cells (FIG. 3C): hypotonic challenge
Description: Müller cell swelling: To determine volume changes of Müller glial cells evoked by hypotonic stress, the cross-sectional area of glial cell somata in the inner nuclear layer of retinal slices was measured. Acutely isolated slices (thickness, 1 mm) were prepared from untreated control eyes and from the detached retinal area of operated eyes from C57BL/6 and Dp71-null mice, placed in a perfusion chamber and loaded with the vital dye Mitotracker Orange (10 μM). This dye is selectively taken up by Müller glial cells whereas retinal neurons, astrocytes, and microglial cells remain unstained. The stock solution of the dye was prepared in dimethylsulfoxide and resolved in saline. The slices were examined with a confocal laser scanning microscope LSM 510 Meta (Zeiss, Oberkochen, Germany). Mitotracker Orange was excited at 543 nm, and emission was recorded with a 560 nm long-pass filter. To assure that the maximum soma areas were precisely recorded, the focal plane was continuously adjusted in the course of the experiments.
A gravity-fed system with multiple reservoirs was used to perfuse the recording chamber continuously with extracellular solution; the hypotonic solution and test substances were added by rapid change of the perfusate. The extracellular solution consisted of (in mM) […], 3 KCl, 2 CaCl2, 1 MgCl2, 10 HEPES, and 11 glucose, adjusted to pH 7.4 with Tris. The hypotonic solution (60% of control osmolarity) was made up by adding distilled water. BaCl2 (1 mM) was preincubated for 10 minutes in extracellular solution before application within hypotonic solution. Blocking substances were preincubated for 15 to 45 minutes, and adenosine was administered simultaneously with the hypotonic solution. Swelling experiments were performed at room temperature.
To determine the extent of glial soma swelling, the cross-sectional area of Mitotracker Orange-stained cell bodies in the inner nuclear layer of retinal slices was measured off-line using the image analysis software of the LSM. Bar diagrams display the mean (+SEM) cross-sectional area of cell somata that was measured after 4-minute perfusion with hypotonic solution, in percent of the soma area measured before osmotic challenge (100%).

[1] = control retina from Dp71-null mice

O=C(CBr)c1ccc(Br)cc1 [4-bromophenacyl bromide]
cross-sectional area of Müller cell somata after 4-minute perfusion with hypotonic solution, in percent of the soma area before osmotic challenge (Müller cells from Dp71-null mice, 300 μM, preincubated, hypotonic solution 60% of control osmolarity): 103.3±2.1%
effect on osmotic swelling of Müller cells (FIG. 3C) [1]: blocked the swelling

[Ba+2].[Cl-].[Cl-] [Ba^2+, barium chloride]
effect on Müller cell soma area under hypotonic challenge (FIG. 3B) [1]: no effect
effect on Müller cell soma area under hypotonic challenge (FIG. 3B) (control retina from wt mice): induced a swelling
cross-sectional area of Müller cell somata after 4-minute perfusion with hypotonic solution, in percent of the soma area before osmotic challenge (slices from control retinas of C57BL/6 (wt) mice, BaCl2 1 mM, 102.0±1.0% without Ba2+): 111.5±1.6%
cross-sectional area of Müller cell somata after 4-minute perfusion with hypotonic solution, in percent of the soma area before osmotic challenge (untreated Dp71-null mice, BaCl2 1 mM, 118.0±2.3% without Ba2+): 122.3+3.6%

Nc1ncnc2c1ncn2[C@@H]1O[C@H](CO)[C@@H](O)[C@H]1O [adenosine]
effect on osmotic swelling of Müller cells (FIG. 3C) [1]: blocked the swelling
cross-sectional area of Müller cell somata after 4-minute perfusion with hypotonic solution, in percent of the soma area before osmotic challenge (untreated retinas from Dp71-null mice, adenosine 10 μM applied with the hypotonic solution (60% of control osmolarity), 120.3±3.8% without adenosine): 103.2±2.2%

COc1ccc2c(c1)c(CC(=O)O)c(C)n2C(=O)c1ccc(Cl)cc1 [indomethacin]
cross-sectional area of Müller cell somata after 4-minute perfusion with hypotonic solution, in percent of the soma area before osmotic challenge (Müller cells from Dp71-null mice, 10 μM, preincubated, hypotonic solution 60% of control osmolarity): 104.4±1.6%
effect on osmotic swelling of Müller cells (FIG. 3C) [1]: blocked the swelling
